Our source for the inhibition values is patent US4759880A, “Alkanoarachidonic acids” (Research Corporation, priority 1984, dated 1988).

Assay [1] deals with T1, 5-lipoxygenase (Rattus norvegicus, UniProt P12527).
T1 construct: super natant from RBL-1 cells; endogenous in cells; host or cells: RBL-1 cells (supernatant)
T1 sequence (P12527 1-673): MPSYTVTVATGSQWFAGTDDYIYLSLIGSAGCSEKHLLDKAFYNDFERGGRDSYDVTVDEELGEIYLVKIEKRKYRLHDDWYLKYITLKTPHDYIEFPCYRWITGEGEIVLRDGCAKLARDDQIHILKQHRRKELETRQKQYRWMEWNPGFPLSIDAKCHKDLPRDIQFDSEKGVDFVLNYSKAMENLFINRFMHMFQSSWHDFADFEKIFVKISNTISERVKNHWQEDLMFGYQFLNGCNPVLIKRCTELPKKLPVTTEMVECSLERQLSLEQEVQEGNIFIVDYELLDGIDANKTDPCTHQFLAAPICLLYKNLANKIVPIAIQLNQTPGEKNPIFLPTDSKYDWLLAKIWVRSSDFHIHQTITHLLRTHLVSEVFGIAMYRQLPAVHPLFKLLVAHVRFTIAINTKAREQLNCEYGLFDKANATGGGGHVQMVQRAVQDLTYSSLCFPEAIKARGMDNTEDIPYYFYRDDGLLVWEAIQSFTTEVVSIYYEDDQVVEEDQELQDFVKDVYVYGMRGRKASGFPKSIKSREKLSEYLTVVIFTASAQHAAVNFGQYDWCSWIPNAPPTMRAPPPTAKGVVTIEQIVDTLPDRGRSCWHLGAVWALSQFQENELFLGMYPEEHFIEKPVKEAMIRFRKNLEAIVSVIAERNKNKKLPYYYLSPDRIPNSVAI
In words: Inhibition of conversion of 14C-AA to 14C-5-HETE in supernatant from RBL-1 cells. It counts as biochemical. The source says:
(§1) Biological studies to define the profiles of these compounds reveal interesting and selective properties including, in vitro inhibition of SRS-A biosynthesis, 5-lipoxygenase inhibition, phospholiphase A2 inhibition and antithrombotic activity.

For assay [2], the system named is human gel-filtered platelet suspension. In words: Inhibition of AA-induced platelet aggregation. To be noted: human gel-filtered platelet suspension containing 0.2% albumin. Type of assay: cell-based.
Description: as §1

On to `CCCCC/C=C\C/C=C\C/C=C\C1(/C=C\CCCC(=O)O)CC1` [compound 1], for which 100 µM produced 86% inhibition in assay [1]. Also, the inhibition at 80 µM in assay [2] is 50%.
